Like-named read-outs stand apart in the source and are kept apart here.
What was measured:
[1] = tested on: DU145 prostate carcinoma cells; conditions: Compound A 40 mg/kg oral BID; for Time to reach 1 g: DU145 s.c. in athymic mice, docetaxel 10 mg/kg i.v. days 10, 14, 18, in combination Compound A given between docetaxel treatments; for T-C: delay vs control to reach tumor size 1 g, docetaxel 10 mg/kg i.v.
Description: Balb, Nu\Nu male mice, from Harlan (Italy), were maintained in cages with paper filter cover, food and bedding sterilized and water acidified. 2.5×10^6 DU145 prostate carcinoma cells (from the American Type Culture Collection) were injected subcutaneously in athymic mice.
The treatment started 10 days later tumor cells injection when tumors were palpable. Docetaxel was prepared immediately before treatment, while COMPOUND A was prepared every 3 days, on the basis of known stability of the compound.
COMPOUND A was administered by oral route in a volume of 10 ml/kg at the doses of 40 mg/kg twice a day (BID) for 9 days (days 10 to 18). Docetaxel was administered by intravenous route in a volume of 10 ml/kg at the dose of 10 mg/kg on days 10, 14, 18 from the days of cell injection. When combined, COMPOUND A was administered in the interval between the docetaxel treatments at days 11, 12, 13, 15, 16, 17, 19, 20 and 21. Tumor growth and body weight were measured every 3 days. Tumor growth was assessed by caliper. The two diameters were recorded and the tumor weight was calculated according to the following formula: length (mm)×width^2/2. The effect of the antitumor treatment was evaluated as the delay in the onset of an exponential growth of the tumor (see for references, Anticancer drugs 7:437-60, 1996). This delay (T-C value) was defined as the difference of time (in days) required for the treatment group (T) and the control group (C) tumors to reach a predetermined size (1 g). Toxicity was evaluated on the basis of body weight reduction.

[2] = tested on: DU145 prostate carcinoma cells; assay: In vivo antitumor efficacy using the monoclonal antibody (DU145 xenograft, tumor growth delay); conditions: COMPOUND A 40 mg/kg oral BID; for Time to reach 1 g: DU145 s.c. in athymic mice, bevacizumab 20 mg/kg i.p. days 6, 10, 14, 18, in combination COMPOUND A given between bevacizumab treatments; for T-C: delay vs control to reach tumor size 1 g
Description: Balb, Nu\Nu male mice, from Harlan (Italy), were maintained in cages with paper filter cover, food and bedding sterilized and water acidified. 2.5×10^6 DU145 prostate carcinoma cells (from the American Type Culture Collection) were injected subcutaneously in athymic mice. […] The treatment started 6 days later tumor cell injection when tumors were palpable. Bevacizumab was prepared immediately before treatment, while COMPOUND A was prepared every 3 days, on the basis of known stability of the compound.
COMPOUND A was administrated by oral route in a volume of 10 ml/kg at the dose of 40 mg/kg twice a day (BID) for 12 days (days 6 to 17). Bevacizumab was administered intraperitoneally in a volume of 10 ml/kg at the dose of 20 mg/kg on days 6, 10, 14, 18 from the days of tumor cells injection. When combined, COMPOUND A was administered in the interval between the bevacizumab treatments at days 7, 8, 9, 11, 12, 13, 15, 16, 17, 19, 20 and 21. Tumor growth and body weight were measured every 3 days. Tumor growth was assessed by caliper. The two diameters were recorded and the tumor weight was calculated according the following formula: length (mm)×width^2/2. The effect of the antitumor treatment was evaluated as the delay in the onset of an exponential growth of the tumor (see for references, Anticancer drugs 7:437-60, 1996). This delay (T-C value) was defined as the difference of time (in days) required for the treatment group (T) and the control group (C) tumors to reach a predetermined size (1 g). Toxicity was evaluated on the basis of body weigh reduction.

**Q.** With CNC(=O)c1nn(C)c2c1C(C)(C)Cc1cnc(Nc3ccc(N4CCN(C)CC4)cc3)nc1-2 [COMPOUND A, 8-[4-(4-methyl-piperazin-1-yl)-phenylamino]-1,4,4-trimethyl-4,5-dihydro-1H-pyrazolo[4,3-h]quinazoline-3-carboxylic acid methylamide] as the compound, how does the “Time to reach 1 g” value [1] read?
**A.** 27.4 ± 2.7 days

**Q.** What about the “T-C” value [1] of the same compound?
**A.** 10.21 days

**Q.** What about the “Time to reach 1 g” value [2] of the same compound?
**A.** 32.38 ± 2.7 days

**Q.** What about the “T-C” value ([2]; bevacizumab 20 mg/kg i.p.) of the same compound?
**A.** 16.88 days

**Q.** What does the source list for CC(=O)O[C@@]12CO[C@@H]1C[C@H](O)[C@@]1(C)C(=O)[C@H](O)C3=C(C)[C@@H](OC(=O)[C@H](O)[C@@H](NC(=O)OC(C)(C)C)c4ccccc4)C[C@@](O)([C@@H](OC(=O)c4ccccc4)[C@H]21)C3(C)C [Docetaxel]?
**A.** Time to reach 1 g [1]: 22.25 ± 2.98 days; T-C [1]: 5.05 days

**Q.** How did the “Time to reach 1 g” value [2] turn out when “Bevacizumab: antibody to vascular endothelial growth factor” was run?
**A.** 27.93 ± 3.44 days

**Q.** What about the “T-C” value ([2]; bevacizumab 20 mg/kg i.p.) of the same compound?
**A.** 12.43 days

**Q.** And the Toxicity ([2]; evaluated on the basis of body weight reduction, bevacizumab 20 mg/kg i.p.)?
**A.** 0/8
